Data: the supplement of paper PMC8960247
± gives the standard error.

System: 621-103 (TSC2-rescued)
Experiment: relative viability vs DMSO; higher = less cytotoxic
Conditions: 0.001 µM; serum: 10% FBS; 72 h
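Also: immortalized renal angiomyolipoma cells stably carrying empty vector or TSC2, dosed in 384-well plates in DMEM, viability normalized to vehicle-treated wells within each plate.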

Row | Structure (SMILES) | relative viability [%]
1 | COc1cccc(-c2cc(=O)c3ccccc3o2)c1N | 99.7 ± 1.8
2 | COc1cccc(Nc2c(C(N)=O)cnc3c(C)cc(S(=O)(=O)c4cccc(C(=O)N(C)C)c4)cc23)c1 | 103.1 ± 0.49
3 | COc1ncc(-c2ccc3nccc(-c4ccnnc4)c3c2)cc1NS(=O)(=O)c1ccc(F)cc1F | 101.89 ± 0.069
4 | C[C@@H](Oc1cc(-c2cnn(C3CCNCC3)c2)cnc1N)c1c(Cl)ccc(F)c1Cl | 102.8 ± 0.57
5 | C[C@@H](Oc1cc(-n2cnc3ccc(CN4CCN(C)CC4)cc32)sc1C(N)=O)c1ccccc1C(F)(F)F | 71.9 ± 4.3
6 | C[C@@H]1CN(CC(=O)Nc2ccc3c(c2)Cc2cccc(-c4cc(=O)cc(N5CCOCC5)o4)c2S3)C[C@H](C)O1 | 86 ± 3.5
7 | Cc1ccc(CN2CCNCC2)cc1NC(=O)CNc1ccc(F)c(F)c1 | 98.9 ± 2
8 | Cc1cccc(-c2nn3c(c2-c2ccnc4ccc(C(N)=O)cc24)CCC3)n1 | 93.4 ± 3.5
9 | Cc1ccccc1-n1c(Cn2cnc3c(N)ncnc32)nc2cccc(C)c2c1=O | 100.4 ± 0.26
10 | Cn1cc(-c2ccc3nnc(C(F)(F)c4ccc5ncccc5c4)n3n2)cn1 | 101 ± 1.4
11 | NC1=N[C@@]2(c3cc(NC(=O)c4ccc(F)cn4)ccc3F)COC[C@H]2CS1 | 101 ± 3.9
12 | Nc1nc(Nc2ccc(S(N)(=O)=O)cc2)nn1C(=O)c1c(F)cccc1F | 105 ± 2.8
13 | O=C(NOCC(O)CO)c1cc(Br)c(F)c(F)c1Nc1ccc(I)cc1F (stereo not drawn) | 95 ± 3
14 | O=C(NOC[C@H](O)CO)c1ccc(F)c(F)c1Nc1ccc(I)cc1F | 98.8 ± 2.7
15 | O=C(c1ccc(F)cc1)N1CCC[C@H](c2nc(-c3ccc(F)cc3)no2)C1 | 97.8 ± 7.7
16 | O=C1NC(=O)/C(=C/c2ccc3nccc(-c4ccncc4)c3c2)S1 | 101.8 ± 0.76
17 | O=c1cc(-c2cccc3c2Sc2ccccc2S3)oc(N2CCOCC2)c1 | 90.23 ± 0.51
18 | O=c1cc(N2CCOCC2)oc2c(-c3ccccc3)cccc12 | 100.3 ± 0.45
19 | OCCn1cc(-c2cnc3nnn(Cc4ccc5ncccc5c4)c3n2)cn1 | 102 ± 0.94
20 | Oc1ccc([C@@H]2Oc3ccc(O)cc3[C@@H]3CCC[C@@H]32)cc1 | 101.57 ± 0.083
21 | c1ccc2c(CCNc3ccc(Nc4ccncc4)cc3)c[nH]c2c1 | 103 ± 1.1

Same assay, conditions: 0.01 µM; serum: 10% FBS; 72 h

Row | Structure (SMILES) | relative viability [%]
22 | C=CC(=O)N1CCC[C@@H](n2nc(-c3ccc(Oc4ccccc4)cc3)c3c(N)ncnc32)C1 | 98.8 ± 1.5
23 | CC(=O)c1c(C)c2cnc(Nc3ccc(N4CCNCC4)cn3)nc2n(C2CCCC2)c1=O | 100.9 ± 0.84
24 | CC(C)(C(=O)NCC(F)(F)C(F)(F)F)C(=O)N[C@@H]1C(=O)Nc2ccccc2-c2ccccc21 | 104.2 ± 0.26
25 | CC(C)(C)Cn1c(N)nc2ccc(-c3[nH]c(C(C)(C)C)nc3-c3ccc(F)cc3)nc21 | 97.1 ± 3.8
26 | CC(C)CC(=O)Nc1n[nH]c2c1CN(C(=O)C1CCN(C)CC1)C2(C)C | 102 ± 1.2
27 | CC(C)c1cc(-c2ccc(F)c3ccccc23)nc(N)n1 | 97.9 ± 1.5
28 | CC1(C)C(=O)N(CCN2CCC(C(=O)c3ccc(F)cc3)CC2)c2ccccc21 | 96.93 ± 0.26
29 | CC1(C)CC(=O)c2c(C(F)(F)F)nn(-c3ccc(C(N)=O)c(N[C@H]4CC[C@H](OC(=O)CN)CC4)c3)c2C1 | 82.7 ± 3.9
30 | CC1=C(C(=O)Nc2cc3cn[nH]c3cc2F)C(c2ccc(C(F)(F)F)cc2)CC(=O)N1 (stereo not drawn) | 101 ± 3.5
31 | CN(C)Cc1ccc(-c2nc3cccc4c3n2CCNC4=O)cc1 | 102 ± 1.3
32 | CN(c1ncccc1CNc1nc(Nc2ccc3c(c2)CC(=O)N3)ncc1C(F)(F)F)S(C)(=O)=O | 102 ± 0.37
33 | CN1CCN(c2ccc([N+](=O)[O-])c3no[n+]([O-])c23)CC1 | 87.4 ± 5.2
34 | CNC(=O)c1ccc(C)c(-n2c(C)cc(OCc3ccc(F)cc3F)c(Br)c2=O)c1 | 99 ± 1
35 | CNCc1ccc(-c2[nH]c3cc(F)cc4c3c2CCNC4=O)cc1 | 104.8 ± 0.35
36 | COC(=O)N1CCN(Cc2cccc(NC(=O)Nc3ccc(C)nc3)c2F)CC1 | 110 ± 1.2
37 | COc1cc(Nc2ncc(F)c(Nc3ccc4c(n3)N(COP(=O)(O)O)C(=O)C(C)(C)O4)n2)cc(OC)c1OC | 101 ± 1.2
38 | COc1cc(OC)c(/C=C/S(=O)(=O)Cc2ccc(OC)c(NCC(=O)O)c2)c(OC)c1 | 98.7 ± 1.2
39 | COc1cc(OC)c(NC(=O)Nc2cc(C)on2)cc1Cl | 105 ± 3.8
40 | COc1cc2ncnc(Nc3cccc(Br)c3)c2cc1OC | 103.2 ± 1
41 | COc1ccc(-c2cc3c(C)nc(N)nc3n([C@H]3CC[C@H](OCCO)CC3)c2=O)cn1 | 88.1 ± 2.7
42 | COc1ccc(-c2ccc3c(N4CCOCC4)nc(N4C[C@@H](C)O[C@@H](C)C4)nc3n2)cc1CO | 102.1 ± 0.57

Row | Structure (SMILES) | relative viability [%]
43 | COc1cccc(-c2cc(=O)c3ccccc3o2)c1N | 103 ± 1.9
44 | COc1cccc(Nc2c(C(N)=O)cnc3c(C)cc(S(=O)(=O)c4cccc(C(=O)N(C)C)c4)cc23)c1 | 102 ± 3.5
45 | COc1ncc(-c2ccc3nccc(-c4ccnnc4)c3c2)cc1NS(=O)(=O)c1ccc(F)cc1F | 91 ± 4.4
46 | C[C@@H](Oc1cc(-c2cnn(C3CCNCC3)c2)cnc1N)c1c(Cl)ccc(F)c1Cl | 102 ± 1.5
47 | C[C@@H](Oc1cc(-n2cnc3ccc(CN4CCN(C)CC4)cc32)sc1C(N)=O)c1ccccc1C(F)(F)F | 60.2 ± 0.98
48 | C[C@@H]1CN(CC(=O)Nc2ccc3c(c2)Cc2cccc(-c4cc(=O)cc(N5CCOCC5)o4)c2S3)C[C@H](C)O1 | 83 ± 0.38
49 | Cc1ccc(CN2CCNCC2)cc1NC(=O)CNc1ccc(F)c(F)c1 | 108 ± 3.7
50 | Cc1cccc(-c2nn3c(c2-c2ccnc4ccc(C(N)=O)cc24)CCC3)n1 | 97.8 ± 2.9
51 | Cc1ccccc1-n1c(Cn2cnc3c(N)ncnc32)nc2cccc(C)c2c1=O | 98 ± 1.1
52 | Cn1cc(-c2ccc3nnc(C(F)(F)c4ccc5ncccc5c4)n3n2)cn1 | 100.6 ± 0.28
53 | NC1=N[C@@]2(c3cc(NC(=O)c4ccc(F)cn4)ccc3F)COC[C@H]2CS1 | 100 ± 1.9
54 | Nc1nc(Nc2ccc(S(N)(=O)=O)cc2)nn1C(=O)c1c(F)cccc1F | 106.4 ± 0.39
55 | O=C(NOCC(O)CO)c1cc(Br)c(F)c(F)c1Nc1ccc(I)cc1F (stereo not drawn) | 98.9 ± 1.2
56 | O=C(NOC[C@H](O)CO)c1ccc(F)c(F)c1Nc1ccc(I)cc1F | 100.2 ± 0.66
57 | O=C(c1ccc(F)cc1)N1CCC[C@H](c2nc(-c3ccc(F)cc3)no2)C1 | 100 ± 3.3
58 | O=C1NC(=O)/C(=C/c2ccc3nccc(-c4ccncc4)c3c2)S1 | 107 ± 2
59 | O=c1cc(-c2cccc3c2Sc2ccccc2S3)oc(N2CCOCC2)c1 | 85 ± 3.9
60 | O=c1cc(N2CCOCC2)oc2c(-c3ccccc3)cccc12 | 99.792 ± 0.068
61 | OCCn1cc(-c2cnc3nnn(Cc4ccc5ncccc5c4)c3n2)cn1 | 101.9 ± 0.21
62 | Oc1ccc([C@@H]2Oc3ccc(O)cc3[C@@H]3CCC[C@@H]32)cc1 | 103 ± 1.1
63 | c1ccc2c(CCNc3ccc(Nc4ccncc4)cc3)c[nH]c2c1 | 103 ± 1.1
